We go through eleven molecules from US20250206732A1, “COMPOUNDS AND METHODS FOR THE TARGETED DEGRADATION OF KRAS” (Arvinas Operations, Inc., priority 2022, published 2025).

Molecules are shown by their SMILES.

For the experiment, the target named is T1, AsPC-1 HiBiT-KRASG12D (Homo sapiens, UniProt P01116, G12D).
T1 construct: insert the HiBiT tag onto the N-terminus of one or more of the endogenous KRAS alleles; endogenous in cells; host or cells: AsPC-1 (ATCC CRL-1682), CRISPR-Cas9 knock-in clone, one tagged allele
T1 sequence (P01116 1-188 isoform P01116-2 G12D): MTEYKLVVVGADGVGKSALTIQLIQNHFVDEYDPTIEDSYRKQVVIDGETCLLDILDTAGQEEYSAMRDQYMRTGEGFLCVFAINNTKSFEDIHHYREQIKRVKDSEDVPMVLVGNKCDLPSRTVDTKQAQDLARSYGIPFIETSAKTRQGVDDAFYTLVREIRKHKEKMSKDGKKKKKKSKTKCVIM
Kind of experiment: HiBiT degradation assay (G12D), AsPC-1 HiBiT-KRASG12D cells. The class given is cell-based. The settings on record: 24 hours treatment; for Dmax: ASPC1, AsPC-1 HiBiT-KRASG12D cells, maximum degradation observed; for DC50: AsPC-1 HiBiT-KRASG12D cells, HiBiT luminescence. In short, it runs like this:
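HiBiT-KRAS abundance was read as Nano-Glo HiBiT lytic luminescence (45 min, room temperature) after a PBS wash. Before that, a 4 h alamar blue fluorescence read, normalized to DMSO, monitored viability. Treatment lasted 24 hours at 37 °C, in triplicate, using AsPC-1 cells with endogenous N-terminally HiBiT-tagged KRAS G12D.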
In general terms: With HiBiT, luminescence reflects the tagged protein that the partner subunit can reach.

`CCc1cccc2cc(O)cc(-c3ncc4c(N5CC6CCC(C5)N6)nc(OCCN5CCC(CC6CN(c7cc([C@H](C(=O)N8C[C@H](O)C[C@H]8C(=O)N[C@@H](C)c8ccc(-c9scnc9C)cc8)C(C)C)on7)C6)CC5)nc4c3F)c12` [Compound 81, (2S,4R)-1-[(2R)-2-(3-{3-[(1-{2-[(4-{3,8-diazabicyclo[3.2.1]octan-3-yl}-7-(8-ethyl-3-hydroxynaphthalen-1-yl)-8-fluoropyrido[4,3-d]pyrimidin-2-yl)oxy]ethyl}piperidin-4-yl)methyl]azetidin-1-yl}-1,2-oxazol-5-yl)-3-methylbutanoyl]-4-hydroxy-N-[(1S)-1-[4-(4-methyl-1,3-thiazol-5-yl)phenyl]ethyl]pyrrolidine-2-carboxamide] yielded a Dmax of 80 to 100% and a DC50 of less than 600 nM. On the same counts, the results for `CCc1cccc2cc(O)cc(-c3ncc4c(N5CC6CCC(C5)N6)nc(OC[C@]56CCCN5[C@H](COC(=O)N5CCN(c7cc([C@@H](C(=O)N8C[C@H](O)C[C@H]8C(=O)N[C@@H](C)c8ccc(-c9scnc9C)cc8)C(C)C)on7)CC5)CC6)nc4c3F)c12` [Compound 87, [(3S,7aR)-7a-{[(4-{3,8-diazabicyclo[3.2.1]octan-3-yl}-7-(8-ethyl-3-hydroxynaphthalen-1-yl)-8-fluoropyrido[4,3-d]pyrimidin-2-yl)oxy]methyl}-hexahydro-1H-pyrrolizin-3-yl]methyl 4-{5-[(2S)-1-[(2S,4R)-4-hydroxy-2-{[(1S)-1-[4-(4-methyl-1,3-thiazol-5-yl)phenyl]ethyl]carbamoyl}pyrrolidin-1-yl]-3-methyl-1-oxobutan-2-yl]-1,2-oxazol-3-yl}piperazine-1-carboxylate] are 20 to 60% and 600 to 1000 nM. On the same counts, the results for `CCc1cccc2cc(O)cc(-c3ncc4c(N5CC6CCC(C5)N6)nc(OC[C@@]56CCCN5[C@H](CN5CCC7(CC5)CN(c5cc([C@H](C(=O)N8C[C@H](O)C[C@H]8C(=O)N[C@@H](C)c8ccc(-c9scnc9C)cc8)C(C)C)on5)C7)CC6)nc4c3F)c12` [Compound 88, (2S,4R)-1-[(2R)-2-[3-(7-{[(3S,7aS)-7a-{[(4-{3,8-diazabicyclo[3.2.1]octan-3-yl}-7-(8-ethyl-3-hydroxynaphthalen-1-yl)-8-fluoropyrido[4,3-d]pyrimidin-2-yl)oxy]methyl}-hexahydro-1H-pyrrolizin-3-yl]methyl}-2,7-diazaspiro[3.5]nonan-2-yl)-1,2-oxazol-5-yl]-3-methylbutanoyl]-4-hydroxy-N-[(1S)-1-[4-(4-methyl-1,3-thiazol-5-yl)phenyl]ethyl]pyrrolidine-2-carboxamide] are 80 to 100% and less than 600 nM.

`CCc1cccc2cc(O)cc(-c3ncc4c(N5CC6CCC(C5)N6)nc(OC[C@@]56CCCN5[C@H](COC(=O)N(C)Cc5cc([C@H](C(=O)N7C[C@H](O)C[C@H]7C(=O)N[C@@H](C)c7ccc(-c8scnc8C)cc7)C(C)C)on5)CC6)nc4c3F)c12` [Compound 90, [(3S,7aS)-7a-{[(4-{3,8-diazabicyclo[3.2.1]octan-3-yl}-7-(8-ethyl-3-hydroxynaphthalen-1-yl)-8-fluoropyrido[4,3-d]pyrimidin-2-yl)oxy]methyl}-hexahydro-1H-pyrrolizin-3-yl]methyl N-({5-[(2R)-1-[(2S,4R)-4-hydroxy-2-{[(1S)-1-[4-(4-methyl-1,3-thiazol-5-yl)phenyl]ethyl]carbamoyl}pyrrolidin-1-yl]-3-methyl-1-oxobutan-2-yl]-1,2-oxazol-3-yl}methyl)-N-methylcarbamate] had a Dmax of 80 to 100% and a DC50 of less than 600 nM.

`CCc1cccc2cc(O)cc(-c3ncc4c(N5CC6CCC(C5)N6)nc(OC[C@@]56CCCN5[C@H](COC(=O)N(C)Cc5cc([C@@H](C(=O)N7C[C@H](O)C[C@H]7C(=O)N[C@@H](C)c7ccc(-c8scnc8C)cc7)C(C)C)on5)CC6)nc4c3F)c12` [Compound 91, [(3S,7aS)-7a-{[(4-{3,8-diazabicyclo[3.2.1]octan-3-yl}-7-(8-ethyl-3-hydroxynaphthalen-1-yl)-8-fluoropyrido[4,3-d]pyrimidin-2-yl)oxy]methyl}-hexahydro-1H-pyrrolizin-3-yl]methyl N-({5-[(2S)-1-[(2S,4R)-4-hydroxy-2-{[(1S)-1-[4-(4-methyl-1,3-thiazol-5-yl)phenyl]ethyl]carbamoyl}pyrrolidin-1-yl]-3-methyl-1-oxobutan-2-yl]-1,2-oxazol-3-yl}methyl)-N-methylcarbamate] yielded a Dmax of 20 to 60% and a DC50 of 1000 to 3000 nM. On the same counts, the results for `CCc1cccc2cc(O)cc(-c3ncc4c(N5CC6CCC(C5)N6)nc(OC[C@]56CCCN5[C@@H](COC(=O)N(C)Cc5cc([C@H](C(=O)N7C[C@H](O)C[C@H]7C(=O)N[C@@H](C)c7ccc(-c8scnc8C)cc7)C(C)C)on5)CC6)nc4c3F)c12` [Compound 92, [(3R,7aR)-7a-{[(4-{3,8-diazabicyclo[3.2.1]octan-3-yl}-7-(8-ethyl-3-hydroxynaphthalen-1-yl)-8-fluoropyrido[4,3-d]pyrimidin-2-yl)oxy]methyl}-hexahydro-1H-pyrrolizin-3-yl]methyl N-({5-[(2R)-1-[(2S,4R)-4-hydroxy-2-{[(1S)-1-[4-(4-methyl-1,3-thiazol-5-yl)phenyl]ethyl]carbamoyl}pyrrolidin-1-yl]-3-methyl-1-oxobutan-2-yl]-1,2-oxazol-3-yl}methyl)-N-methylcarbamate] are 80 to 100% and less than 600 nM.

For the molecule `CCc1cccc2cc(O)cc(-c3ncc4c(N5CC6CCC(C5)N6)nc(OC[C@]56CCCN5[C@@H](COC(=O)N(C)Cc5cc([C@@H](C(=O)N7C[C@H](O)C[C@H]7C(=O)N[C@@H](C)c7ccc(-c8scnc8C)cc7)C(C)C)on5)CC6)nc4c3F)c12` [Compound 93, [(3R,7aR)-7a-{[(4-{3,8-diazabicyclo[3.2.1]octan-3-yl}-7-(8-ethyl-3-hydroxynaphthalen-1-yl)-8-fluoropyrido[4,3-d]pyrimidin-2-yl)oxy]methyl}-hexahydro-1H-pyrrolizin-3-yl]methyl N-({5-[(2S)-1-[(2S,4R)-4-hydroxy-2-{[(1S)-1-[4-(4-methyl-1,3-thiazol-5-yl)phenyl]ethyl]carbamoyl}pyrrolidin-1-yl]-3-methyl-1-oxobutan-2-yl]-1,2-oxazol-3-yl}methyl)-N-methylcarbamate], the Dmax lay within 20 to 60% and the DC50 was in the range of 1000 to 3000 nM.

Take `CCc1cccc2cc(O)cc(-c3ncc4c(N5CC6CCC(C5)N6)nc(OC[C@@]56CCCN5[C@H](CN5CCN(c7cc([C@H](C(=O)N8C[C@H](O)C[C@H]8C(=O)N[C@@H](C)c8ccc(-c9scnc9C)cc8)C(C)C)on7)CC5)CC6)nc4c3F)c12` [Compound 94, (2S,4R)-1-[(2R)-2-[3-(4-{[(3S,7aS)-7a-{[(4-{3,8-diazabicyclo[3.2.1]octan-3-yl}-7-(8-ethyl-3-hydroxynaphthalen-1-yl)-8-fluoropyrido[4,3-d]pyrimidin-2-yl)oxy]methyl}-hexahydro-1H-pyrrolizin-3-yl]methyl}piperazin-1-yl)-1,2-oxazol-5-yl]-3-methylbutanoyl]-4-hydroxy-N-[(1S)-1-[4-(4-methyl-1,3-thiazol-5-yl)phenyl]ethyl]pyrrolidine-2-carboxamide]: the Dmax was 80 to 100% and the DC50 was less than 600 nM. `CCc1cccc2cc(O)cc(-c3ncc4c(N5CC6CCC(C5)N6)nc(OC[C@@]56CCCN5[C@H](CN5CCN(c7cc([C@@H](C(=O)N8C[C@H](O)C[C@H]8C(=O)N[C@@H](C)c8ccc(-c9scnc9C)cc8)C(C)C)on7)CC5)CC6)nc4c3F)c12` [Compound 95, (2S,4R)-1-[(2S)-2-[3-(4-{[(3S,7aS)-7a-{[(4-{3,8-diazabicyclo[3.2.1]octan-3-yl}-7-(8-ethyl-3-hydroxynaphthalen-1-yl)-8-fluoropyrido[4,3-d]pyrimidin-2-yl)oxy]methyl}-hexahydro-1H-pyrrolizin-3-yl]methyl}piperazin-1-yl)-1,2-oxazol-5-yl]-3-methylbutanoyl]-4-hydroxy-N-[(1S)-1-[4-(4-methyl-1,3-thiazol-5-yl)phenyl]ethyl]pyrrolidine-2-carboxamide] returned a DC50 of more than 3000 nM. `CCc1cccc2cc(O)cc(-c3ncc4c(N5CC6CCC(C5)N6)nc(OC[C@@]56CCCN5[C@H](CN5CCC(COc7cc([C@H](C(=O)N8C[C@H](O)C[C@H]8C(=O)N[C@@H](C)c8ccc(-c9scnc9C)cc8)C(C)C)on7)CC5)CC6)nc4c3F)c12` [Compound 96, (2S,4R)-1-[(2R)-2-{3-[(1-{[(3S,7aS)-7a-{[(4-{3,8-diazabicyclo[3.2.1]octan-3-yl}-7-(8-ethyl-3-hydroxynaphthalen-1-yl)-8-fluoropyrido[4,3-d]pyrimidin-2-yl)oxy]methyl}-hexahydro-1H-pyrrolizin-3-yl]methyl}piperidin-4-yl)methoxy]-1,2-oxazol-5-yl}-3-methylbutanoyl]-4-hydroxy-N-[(1S)-1-[4-(4-methyl-1,3-thiazol-5-yl)phenyl]ethyl]pyrrolidine-2-carboxamide]: the Dmax was 80 to 100% and the 50% degradation concentration (DC50) was less than 600 nM.

Molecule `CCc1cccc2cc(O)cc(-c3ncc4c(N5CC6CCC(C5)N6)nc(OC[C@@]56CCCN5[C@H](CN5CCC(COc7cc([C@@H](C(=O)N8C[C@H](O)C[C@H]8C(=O)N[C@@H](C)c8ccc(-c9scnc9C)cc8)C(C)C)on7)CC5)CC6)nc4c3F)c12` [Compound 97, (2S,4R)-1-[(2S)-2-{3-[(1-{[(3S,7aS)-7a-{[(4-{3,8-diazabicyclo[3.2.1]octan-3-yl}-7-(8-ethyl-3-hydroxynaphthalen-1-yl)-8-fluoropyrido[4,3-d]pyrimidin-2-yl)oxy]methyl}-hexahydro-1H-pyrrolizin-3-yl]methyl}piperidin-4-yl)methoxy]-1,2-oxazol-5-yl}-3-methylbutanoyl]-4-hydroxy-N-[(1S)-1-[4-(4-methyl-1,3-thiazol-5-yl)phenyl]ethyl]pyrrolidine-2-carboxamide] displayed a Dmax of 20 to 60% and a DC50 of 600 to 1000 nM.

The Dmax is the greatest extent of degradation seen. A higher Dmax goes with deep degradation. By DC50 is commonly meant the midpoint of the concentration-degradation curve. A high value points to degradation only at high concentration.
